According to patent US9512087B2, “Hybrid molecules containing pharmacophores of fluconazole as antifungal agents and their preparation” (Council for Scientific & Industrial Research, priority 2011, dated 2016):
Converted amounts (≈) assume the structure as drawn.

Experiments:
Test in all cases: Antifungal MIC, broth dilution
C. albicans ATCC 24433 = format: cell-based, Candida albicans; conditions: Candida albicans, ATCC24433, RPMI 1640 with MOPS, end point 48 hours; for MIC80: read-out: Ca01 A: MIC80; for MIC50: read-out: Ca01 B: MIC50
Protocol: (§1) The compounds of Formula 1 were tested for antifungal activity against Candida albicans, Aspergillus niger and Fusarium proliferatum. In vitro evaluation of antifungal activity was performed by determining the minimum inhibitory concentration (MIC) following standard methods (CLSI: Reference method for broth dilution antifungal susceptibility testing of yeasts; Approved standard, second edition M27-A2, 2002; CLSI: Reference method for broth dilution antifungal susceptibility testing of filamentous fungi; Approved standard M38-A, 2002). Anti-fungal susceptibility testing of these anti-fungal compounds was done by broth dilution method using RPMI 1640 medium with MOPS buffer. Known anti-fungal agents like fluconazole and amphotericin-B were used as positive control. End points were determined after 48 hours visually and by using spectrophotometer wherever necessary. Different dilutions were tried and various sets of experiments performed. The activity parameters are enumerated in Table 5.

[1] = tested on: F. proliferatum ATCC 10052; format: cell-based, Fusarium proliferatum; conditions: Fusarium proliferatum, ATCC10052, RPMI 1640 with MOPS, end point 48 hours, read-out: Fp01 MIC50
Protocol: as §1

C. krusei ATCC 6258 = format: cell-based; conditions: Pichia kudriavzevii, ATCC6258, RPMI 1640 with MOPS, end point 48 hours, read-out: Ck01 MIC50
C. neoformans ATCC 34664 = format: cell-based; conditions: Cryptococcus neoformans, ATCC34664, RPMI 1640 with MOPS, end point 48 hours, read-out: Cn01 MIC50
C. tropicalis ATCC 750 = format: cell-based; conditions: Candida tropicalis, ATCC750, RPMI 1640 with MOPS, end point 48 hours, read-out: Ct01 MIC50
C. glabrata ATCC 90030 = format: cell-based; conditions: Nakaseomyces glabratus, ATCC90030, RPMI 1640 with MOPS, end point 48 hours, read-out: Cg01 MIC50
A. niger ATCC 16404 = format: cell-based, Aspergillus niger; conditions: Aspergillus niger, ATCC16404, RPMI 1640 with MOPS, end point 48 hours, read-out: An01 MIC50
Protocol: as §1

A. fumigatus ATCC 46645 = format: cell-based; conditions: Aspergillus fumigatus, ATCC46645, RPMI 1640 with MOPS, end point 48 hours, read-out: Afm01 MIC50

Compound	MIC80 (C. albicans ATCC 24433)	MIC50 (C. albicans ATCC 24433)	MIC50 [1]	MIC50 (C. krusei ATCC 6258)	MIC50 (C. neoformans ATCC 34664)	MIC50 (C. tropicalis ATCC 750)	MIC50 (C. glabrata ATCC 90030)	MIC50 (A. niger ATCC 16404)	MIC50 (A. fumigatus ATCC 46645)
O=C(c1ccc(OCC(O)(Cn2cncn2)c2ccc(F)cc2F)cc1)C(Br)C(Br)c1ccc(Cl)cc1Cl (stereo not drawn) [Compound 1B-1, 2,3-Dibromo-3-(2,4-dichlorophenyl)-1-(4-(2-(2,4-difluorophenyl)-2-hydroxy-3-(1H-1,2,4-triazol-1-yl)propoxy)phenyl)propan-1-one]	0.5 µg/mL (≈ 0.724 µM)	0.25 µg/mL (≈ 0.362 µM)	> 8 µg/mL	2 µg/mL (≈ 2.9 µM)	0.5 µg/mL (≈ 0.724 µM)	1 µg/mL (≈ 1.45 µM)	0.5 µg/mL (≈ 0.724 µM)	> 8 µg/mL	> 8 µg/mL
O=C(/C=C/c1ccccc1F)c1ccc(OCC(O)(Cn2cncn2)c2ccc(F)cc2F)cc1 (stereo not drawn) [Compound 1A-8]	0.12 µg/mL (≈ 0.25 µM)	0.12 µg/mL (≈ 0.25 µM)	> 4 µg/mL	4 µg/mL (≈ 8.34 µM)	2 µg/mL (≈ 4.17 µM)	0.5 µg/mL (≈ 1.04 µM)	0.25 µg/mL (≈ 0.521 µM)	> 4 µg/mL	> 4 µg/mL
O=C(/C=C/c1ccc(Cl)cc1)c1ccc(OC[C@@](O)(Cn2cncn2)c2ccc(F)cc2F)cc1 [S-(+)-1A-6, S-(+)-(E)-3-(4-chlorophenyl)-1-(4-(2-(2,4-difluorophenyl)-2-hydroxy-3-(1H-1,2,4-triazol-1-yl)propoxy)phenyl)prop-2-en-1-one]	2 µg/mL (≈ 4.03 µM)	1 µg/mL (≈ 2.02 µM)	> 4 µg/mL	4 µg/mL (≈ 8.07 µM)	2 µg/mL (≈ 4.03 µM)	2 µg/mL (≈ 4.03 µM)	0.5 µg/mL (≈ 1.01 µM)	> 4 µg/mL	> 4 µg/mL
